Measured values reported in PubChem BioAssay (NCI).
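Tested at 5 concentrations; 48 h exposure; 96-well plates; endpoints linearly interpolated, else capped at highest concentration. The concentration for 50% growth inhibition is given as GI50. At the TGI there is no net growth.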

Columns and labels:
Assay in all cases: NCI-60 cell line screen, 48 h
786-0 renal = test system: 786-0 renal
CCRF-CEM leukemia = test system: CCRF-CEM leukemia
HT29 colon = test system: HT29 colon
MCF7 breast = test system: MCF7 breast
MDA-MB-231 breast = test system: MDA-MB-231 breast
MDA-MB-435 = test system: MDA-MB-435
NCI-H23 lung = test system: NCI-H23 lung
TK-10 renal = test system: TK-10 renal
A549 NSCLC = test system: A549 NSCLC
BT-549 breast = test system: BT-549 breast
COLO 205 colon = test system: COLO 205 colon
SN12C renal = test system: SN12C renal

Row | SMILES | TGI (786-0 renal) | TGI (CCRF-CEM leukemia) | TGI (HT29 colon) | TGI (MCF7 breast) | TGI (MDA-MB-231 breast) | TGI (MDA-MB-435) | TGI (NCI-H23 lung) | TGI (TK-10 renal) | TGI (A549 NSCLC) | TGI (BT-549 breast) | TGI (COLO 205 colon) | TGI (SN12C renal) | GI50 (CCRF-CEM leukemia) | GI50 (COLO 205 colon) | GI50 (HT29 colon) | GI50 (MCF7 breast) | GI50 (MDA-MB-231 breast)
1 | O=C1/C(=C/c2ccc(Cl)cc2)N=C(c2ccccc2)N1C1Nc2cc3c(cc2S1)NC(N1C(=O)/C(=C/c2ccc(Cl)cc2)N=C1c1ccccc1)S3 (stereo not drawn) | > 100 µM | > 100 µM | > 100 µM | > 100 µM | > 100 µM | > 100 µM | > 100 µM | > 100 µM | – | – | – | – | – | – | – | – | –
2 | Cn1c(=O)c2nc3nnc(C#N)c(N)n3c2n(C)c1=O | > 100 µM | > 100 µM | > 100 µM | > 100 µM | > 100 µM | > 100 µM | – | > 100 µM | > 100 µM | > 100 µM | > 100 µM | > 100 µM | – | – | – | – | –
3 | Cc1nc2c(n1CCC(C)C)C(=O)c1ccccc1C2=O | > 100 µM | 53.9 µM | > 100 µM | – | – | – | 44.9 µM | > 100 µM | > 100 µM | – | 30.8 µM | 64.3 µM | – | – | – | – | –
4 | O=c1oc2cccnc2n1CCN1CCN(c2ccc(Oc3ccccc3)cc2)CC1 | > 100 µM | > 100 µM | > 100 µM | > 100 µM | > 100 µM | > 100 µM | > 100 µM | > 100 µM | > 100 µM | – | – | – | – | – | – | – | –
5 | BrCCC[P+](c1ccccc1)(c1ccccc1)c1ccccc1 | > 100 µM | > 100 µM | > 100 µM | > 100 µM | 86 µM | > 51.8 µM | > 64.7 µM | > 100 µM | > 63.8 µM | > 100 µM | 4.16 µM | > 100 µM | – | – | – | – | –
6 | Fc1ccc(NCn2nc(COc3ccccc3Cl)n(/N=C/c3ccc(-c4ccc(Cl)cc4Cl)o3)c2=S)cc1Cl | > 100 µM | > 100 µM | > 100 µM | > 100 µM | > 100 µM | > 100 µM | > 100 µM | > 100 µM | – | – | – | – | – | – | – | – | –
7 | CC(=O)[O-].[Ni].c1ccc(/C(=N\Nc2ccccn2)c2ccccn2)cc1 | 22.1 µM | 44.3 µM | 23.8 µM | 30.7 µM | 22.8 µM | 22.4 µM | 28.9 µM | 20.7 µM | 49.2 µM | 45.1 µM | – | 29.3 µM | 0.0976 µM | 0.0121 µM | 0.056 µM | 6.58 µM | 6.01 µM
8 | COc1cc(C2c3[nH]c4ccc(F)cc4c3C[C@H]3COC(=O)N23)cc(OC)c1O (stereo partly drawn) | 26 µM | > 100 µM | 26.8 µM | > 100 µM | 47.4 µM | – | 18.5 µM | – | 28.3 µM | > 100 µM | 23.7 µM | 35.5 µM | – | – | – | – | –
9 | c1nc(SSc2ncnc3nc[nH]c23)c2[nH]cnc2n1 | > 100 µM | > 100 µM | > 100 µM | – | > 56.5 µM | > 85.3 µM | 9.54 µM | – | > 100 µM | > 100 µM | > 100 µM | > 73.3 µM | – | – | – | – | –
10 | O=C(Nc1nncs1)NS(=O)(=O)n1cnc2ccccc21 | > 100 µM | > 100 µM | > 100 µM | – | > 100 µM | > 100 µM | > 100 µM | > 100 µM | > 100 µM | > 100 µM | > 100 µM | > 100 µM | – | – | – | – | –
11 | COc1ccccc1-c1nc2ccccc2c(=O)[nH]1 | > 100 µM | > 100 µM | – | > 100 µM | > 100 µM | > 100 µM | > 100 µM | – | > 100 µM | > 100 µM | > 100 µM | > 100 µM | – | – | – | – | –
12 | NC(CCCCN=Cc1nc(-c2ccccc2)oc1O)C(=O)O (stereo not drawn) | > 100 µM | > 100 µM | > 100 µM | – | – | – | > 100 µM | > 100 µM | > 100 µM | – | > 100 µM | > 100 µM | – | – | – | – | –
13 | CCN(CC)CCNc1ccc2ncn3c4c(OC)cccc4c(=O)c1c23 | 75 µM | 17.3 µM | 36.1 µM | – | 25.6 µM | 20.7 µM | 24.5 µM | 77.7 µM | 27.6 µM | – | 16.5 µM | 17.7 µM | – | – | – | – | –
14 | COc1cc2c(oc(=O)c3cc4ccoc4c(OC)c32)c2cccc(O)c12 | > 100 µM | > 100 µM | > 100 µM | – | – | – | > 100 µM | > 100 µM | > 100 µM | – | > 100 µM | > 100 µM | – | – | – | – | –
15 | COC(=O)c1cc(-c2ccc(-c3ccc(O)cc3)cc2)cc(-c2ccc(-c3ccc(O)cc3)cc2)c1 | 18.9 µM | 31.2 µM | – | 25.9 µM | 71.3 µM | 24.9 µM | 21 µM | 26.7 µM | 20.9 µM | 26.6 µM | 31 µM | 27 µM | – | – | – | – | –
16 | NC1=NN(c2ccccc2)C2(c3ccncc3C(=O)O)C1C(N)=NN2c1ccccc1 (stereo not drawn) | > 100 µM | > 100 µM | > 100 µM | > 100 µM | > 100 µM | > 100 µM | > 100 µM | – | > 100 µM | > 100 µM | > 100 µM | > 100 µM | – | – | – | – | –
17 | CN(C)CCCNC(=O)c1cc(NC(=O)c2cc(NC(=O)[C@H]3C[C@@H]3C(=O)Nc3cc(C(=O)Nc4cc(C(=O)NCCCN(C)C)n(C)c4)n(C)c3)cn2C)cn1C | > 100 µM | > 100 µM | > 100 µM | > 100 µM | > 100 µM | > 100 µM | > 100 µM | – | > 100 µM | > 100 µM | > 100 µM | > 100 µM | – | – | – | – | –
18 | CC(=O)O[C@H]1CC[C@H]2[C@@H]3CCC4=C(C(=O)C=CC4(C)OC(C)=O)[C@H]3CC[C@]12C (stereo partly drawn) | > 100 µM | > 100 µM | > 100 µM | 73.1 µM | > 100 µM | > 100 µM | > 100 µM | > 100 µM | > 100 µM | > 100 µM | – | > 100 µM | – | – | – | – | –
19 | COP(=O)(OC)C(O)/C=C(\Cl)c1ccc(Cl)cc1 (stereo not drawn) | 39.3 µM | 49 µM | > 100 µM | > 100 µM | > 100 µM | > 100 µM | 50.8 µM | > 100 µM | > 100 µM | – | > 100 µM | > 100 µM | – | – | – | – | –
20 | C[N+](C)(C)C1(C(=O)[O-])CC1 | > 100 µM | > 100 µM | > 100 µM | > 100 µM | – | > 100 µM | > 100 µM | > 100 µM | > 100 µM | – | – | > 100 µM | – | – | – | – | –
